Measured values: patent US20170182040A1, “EPITHELIAL ION CHANNEL (ENAC) BLOCKERS TO TREAT PSORIASIS” (The Board of Trustees of the Leland Stanford Junior …, priority 2014, published 2017)

Tested on: K14 Rac1 animal model for psoriasis
Assay: K14 V12 Rac1 mouse model of psoriasis, IP treatment
Type: in vivo
Conditions: IP 10 mg/kg every other day, 20 treatments
Protocol: FIG. 1: IP treatment with benzamil ameliorates phenotype in a mouse model of psoriasis. […] (c) IP efficacy was dose-dependent (2.1-1.4-0.7 mg/kg 20 treatments) and distinct from another ENAC blocker Amiloride (10 mg/kg).
FIG. 4: Benzamil alter Rac/STAT3 signaling, has effect on human psoriatic keratinocytes. […] Effects on Rac1 and PSTAT3 by Benzamil (10 uM) were validated in human primary psoriatic keratinocytes (Rac1-green, PSTAT3-red, DNA-blue) (b).
Mice overexpressing a K14 driven hyperactive V12 Rac1 mutant display clinical-histologic features mimicking human psoriasis including hyperkeratosis, erythema, Koebnerization, Auspitz sign, arthritis, onychodystrophy, marked psoriasiform hyperplasia, parakeratosis, Munro microabcesses, dilated rete ridge blood vessels and characteristic immune infiltrates. Rac1 mouse and human psoriasis skin show similar epidermal thickness, suprabasilar Ki67, and increased expression of IL 1, 6, 17, 23, 36/CCL 2, 5, 17, 20/TNFα/TGFα/CARD14/IFIH1/IRFs, NFKB, STAT3 activation/β defensins/Act1/IL17R. Transcriptional comparison of psoriasis susceptibility genes in Rac1 mouse and human psoriatic skin show marked overlap of both epidermal and immune pathways. […] See, for example Winge et al. Journal of Investigative Dermatology (2014) 134, S9-S27.
Benzamil attenuates Rac1-mediated psoriasis in a mouse model. In a K14 Rac1 animal model for psoriasis, Benzamil was injected ip every other day for 0, 10 and 20 injections of (2 mg/kg), or PBS.
In psoriasis keratinocytes, cytokine-mediated nuclear translocation of PSTAT3 and NFκB is reduced following Benzamil treatment.

## N=C(N)NC(=O)c1nc(Cl)c(N)nc1N [Amiloride, amiloride]
  Edema: reduced
  Overall effect of IP treatment: Little or no effect
  Psoriasiform hyperplasia (histology): retained
  Rac1 activation, ki67 and TGFα expression and immune cell infiltration (CD3+/cd11c+): high
  Scaling: did not have distinct effect
